This note sets out measurements from patent US4853403A, “3-phenylthiomethylstyrene derivative, process for preparing the same, and antiallergic agent and tyrosinekinase inhibiting agent containing the same” (Kanegafuchi Kagaku Kogyo Kabushiki Kaisha, priority 1985, dated 1989).

In test [1] the target is T1, epidermal growth factor acceptor-tyrosinekinase complex (Homo sapiens, UniProt P00533).
T1 construct: endogenous in cells; host or cells: A-431 (membrane specimen, not solubilized)
The test can be described thus: Tyrosinekinase inhibitory activity (A-431 membrane specimen, EGF-stimulated, [γ-32P]ATP). It counts as biochemical, human (A-431 cell line derived from human cancerous cell). The conditions noted are these: read-out: Inhibition rate (tyrosinekinase). The procedure: Tyrosinekinase inhibitory activity of the compound of the present invention was measured by employing a method for measuring tyrosinekinase activity by G. Carpentor or by S. Cohen et al. [J. Biol. Chem., 254, 4884 (1979); J. Biol. Chem., 257, 1523 (1982)].
Cell line A-431 derived from human cancerous cell was cultured at 37° C. under the condition of 5% CO2 in Dulbecco's modified Eagle medium (made by DAINIPPON PHARMACEUTICAL CO., LTD.) containing 10% fetal bovine serum, 50 μg/ml of streptomycin, 50 IU/ml of penicillin G and 50 μg/ml of canamycin. The obtained cells were treated according to the above Cohen or Graham et al. to give membrane specimen containing epidermal growth factor acceptor-tyrosinekinase complex (hereinafter referred to as "membrane specimen"). The membrane specimen was employed in the following measurement without solubilization.
Sample dissolved in dimethylsulfoxide was added to a mixture of 20 mM of N-2-hydroxyethylpyperadino-N'-2-ethanesulfonate buffer (pH 7.4), 1 mM of MnCl2, 7.5 μg of bovine serum albumin and the membrane specimen (10 μg as protein). After incubation at 0° C. for 5 minutes, 100 ng of epidermal growth factor (hereinafter referred to as "EGF" was added and the mixture was further incubated at 0° C. for 15 minutes. [γ-^32 P]ATP (3000 Ci/mmol, 0.1 μCi) was added to make final volume of 70 μl. After incubation at 0° C. for 15 minutes, 50 μl of the reaction solution was soaked into Wattman 3 MM filter paper and immediately the reaction was stopped by 10% trichloroacetic acid-10 mM sodium pyrophosphate aqueous solution. The filter paper was sufficiently washed with the same solution and then washed with ethanol and dried. Radioactivity present in the filter paper was measured by liquid scintillation counter (A). Similarly, radioactivity was measured in case of the reaction without EGF (B), the reaction without the sample (C), and the reaction without both EGF and the sample (D) as a control.
Tyrosinekinase inhibition rate (%) was calculated by the following equation. [formula]

In test [2] the test system is SRS-A biosynthesis or release. The test can be described thus: SRS-A biosynthesis or release inhibitory activity (ovalbumin-challenged sensitized guinea pig lung fragments, bioassay on guinea pig ileum). It counts as cell-based, guinea pig (male Hartley). The conditions noted are these: Cavia porcellus, read-out: Inhibition rate (SRS-A biosynthesis or release). The procedure: [I] SRS-A biosynthesis or release inhibitory activity
SRS-A biosynthesis or release inhibitory activity was examined according to Koda et al. [Nippon yakurigakkaishi, 66, 194(1970)] and Kono-Watanabe et al. [J. Immunology, 125, 946(1980)].
Male Hartley guinea pigs weighing 350 to 450 g were sensitized by injecting once each 1 ml of an ovalbumin (100 mg/ml) into gluteus and peritoneal cavity. Four weeks after the injection, the animals were killed and then immediately the lung was perfused with cooled Tyrode's solution to remove blood. The lung was chopped into about 2 mm fragments and 500 mg of the fragments were suspended in 4.84 ml of Tyrode's solution, to which 0.01 ml of the test compound dissolved in dimethylsulfoxide (DMSO) was added. After incubation at 37° C. for 10 minutes, 0.15 ml of an ovalbumin (10 mg/ml) was added, followed by incubation at 37° C. for 20 minutes. In control, DMSO was added and the reaction was conducted in the same manner. The reaction mixture was filtered with gauze.
An amount of SRS-A in the filtrate was bioassayed using guinea pig ileum; i.e. the ileum (length: 2 to 3 cm) was suspended in Magnus tube containing aerated Tyrode's solution at 31° C. and, after the plateau of contraction was obtained, an amount of SRS-A in the above filtrate was bioassayed in the presence of 1 μM of atropine and 1 μM of pyrilamine. Inhibition rate (%) was calculated from a contraction in control as 100.

In test [3] the test system is homologous passive cutaneous anaphylaxis (PCA). The test can be described thus: Inhibitory activity against homologous passive cutaneous anaphylaxis (PCA) in rats. The conditions noted are these: 100 mg/kg, oral, 1 hour before the antigen. It counts as in vivo, rat (male Wistar). How it is done: [II]Inhibitory activity against homologous passive cutaneous anaphylaxis (PCA) in rats
Antiserum was prepared according to I. Mota [Immunology, 7, 681(1964)] and the PCA reaction was conducted according to Maruyama et al. [Nippon yakurigakkaishi, 74, 179(1978)].
(1) Preparation of antiserum
An ovalbumin solution (2 mg/ml) was injected intramuscularly into both thighs of male Wistar rats weighing 200 to 260 g in a volume of 0.5 ml/100 g body weight, and pertussis vaccine (Bordetella pertussis, 2×10^10 /ml, Chibaken Kessei Kenkyujo) was intraperitoneally administered at 1 ml/rat. Twelve days later, blood was taken from posterior aorta under ether anesthesia and antiserum was stored at -80° C.
Group of 4 male Wistar rats weighing 180 to 210 g were employed. Back of the animals was shaved and each 0.05 ml of antiserum (1:32 dilution) was injected intradermally at four sites on the back. After 48 hours, 1 ml of a mixture of ovalbumin (1 mg/ml) and Evans blue (5 mg/ml) was injected intravenously into the tail. 30 Minutes later, the animals were killed under ether anesthesia. The blue-dyed area (mm^2) formed was measured and an inhibition rate(%) was calculated as compared with control.
Test compound suspended in a 2.5% acacia containing 0.2% Tween 80 was administered orally in a volume of 0.5 ml/100 g body weight 1 hour before the antigen. Tranilast was administered orally 30 minutes before the antigen.

Test [4] concerns antigen-induced anaphylactic shock death. The experiment in a line: Protective effect against anaphylactic shock in actively sensitized guinea pigs. It counts as in vivo, guinea pig (male). As to conditions: Cavia porcellus; 100 mg/kg, oral, 30 minutes before antigen inhalation; survival 90 minutes or more; read-out: Protecting Effect (Number of test animal survivied/Number of test animal) (converted). The procedure: [III] Protective effect against anaphylactic shock in actively sensitized guinea pigs
Antigen-induced anaphylactic shock death was observed according to John P. Devlin [Pulmonary and Antiallergic Drugs, John Wiley & Sons, 155 (1985)].
Each 100 mg/kg of ovalbumin dissolved in physiological saline was injected into peritoneal cavity and into gluteus of male guinea pigs weighing 250 to 350 g. 3 Days later, the animals were further injected intraperitoneally with ovalbumin (100 mg/kg). Those animals were employed for testing 3 to 4 weeks after first sensitization. Actively sensitized guinea pigs were pretreated subcutaneously with pyrilamine (1 mg/kg, 30 min.) to suppress histamine-dependent response and with propanolol ([…], 10 min.) to enhance the response induced by other than histamine before the antigen.
The animal was placed in a desiccator with a capacity of about 5 l and 0.5% aqueous solution of ovalbumin was inhaled with ultrasonic type nebulizer for five minutes. Anaphylactic shock death was observed and the animals survived for 90 minutes or more after antigen were estimated to be protected. The compounds of the present invention and antiasmatic agent were administered orally 30 minutes before the antigen inhalation. The control received vehicle alone similarly.

T1 sequence (P00533 25-1210): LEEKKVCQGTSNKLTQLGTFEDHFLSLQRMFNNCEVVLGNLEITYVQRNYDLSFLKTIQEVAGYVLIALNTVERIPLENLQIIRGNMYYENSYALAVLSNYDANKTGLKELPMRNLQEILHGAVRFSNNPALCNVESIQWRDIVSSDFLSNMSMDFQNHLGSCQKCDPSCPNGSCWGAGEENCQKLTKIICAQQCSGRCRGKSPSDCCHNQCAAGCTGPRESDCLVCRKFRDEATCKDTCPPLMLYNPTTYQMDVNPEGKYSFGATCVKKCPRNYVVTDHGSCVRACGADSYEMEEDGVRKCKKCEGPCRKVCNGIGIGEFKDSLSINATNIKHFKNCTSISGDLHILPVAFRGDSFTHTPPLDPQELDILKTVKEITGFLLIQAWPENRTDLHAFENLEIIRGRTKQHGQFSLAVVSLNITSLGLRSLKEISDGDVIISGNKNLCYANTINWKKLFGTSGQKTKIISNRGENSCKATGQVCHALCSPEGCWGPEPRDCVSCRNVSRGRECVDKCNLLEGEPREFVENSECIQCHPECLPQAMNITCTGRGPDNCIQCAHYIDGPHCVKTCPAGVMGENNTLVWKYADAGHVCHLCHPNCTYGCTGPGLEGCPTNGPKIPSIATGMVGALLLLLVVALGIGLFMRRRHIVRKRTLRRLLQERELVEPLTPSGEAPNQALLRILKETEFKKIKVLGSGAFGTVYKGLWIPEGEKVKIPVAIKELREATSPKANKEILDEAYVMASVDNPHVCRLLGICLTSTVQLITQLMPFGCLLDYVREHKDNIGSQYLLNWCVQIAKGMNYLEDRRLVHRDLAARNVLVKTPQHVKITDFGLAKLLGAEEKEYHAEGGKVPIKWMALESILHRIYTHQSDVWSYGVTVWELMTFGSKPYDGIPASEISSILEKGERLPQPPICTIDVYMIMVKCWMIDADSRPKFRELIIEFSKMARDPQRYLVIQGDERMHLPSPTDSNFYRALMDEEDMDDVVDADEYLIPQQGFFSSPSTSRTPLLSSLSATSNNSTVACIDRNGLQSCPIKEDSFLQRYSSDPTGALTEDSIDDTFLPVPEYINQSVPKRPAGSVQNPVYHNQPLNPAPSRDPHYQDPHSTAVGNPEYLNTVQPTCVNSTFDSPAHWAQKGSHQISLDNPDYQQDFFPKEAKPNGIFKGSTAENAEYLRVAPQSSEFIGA
T1 sequence (P01132 977-1029 partner limits assumed): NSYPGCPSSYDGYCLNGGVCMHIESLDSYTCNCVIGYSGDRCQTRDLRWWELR

For orientation: inhibition means the drop in the measured response relative to a control, in per cent. `CCOc1cc(C=C2CCNC2=O)cc(CSc2ccccc2)c1O` [XXVII]: in test [1], the inhibition at 10 µM turned out to be 96%. Further, the inhibition at 100 µM in test [1] and in test [2] was 100% each time. Besides, the “Inhibition rate (PCA reaction, blue-dyed area)” value (“Inhibition rate” for short) in test [3] is 25%. Moreover, the responders at 100 mg/kg in test [4] is 75%.

As for `CCOc1cc(C=C2CCOC2=O)cc(CSc2ccccc2)c1O` [XXIV], in test [1], the inhibition at 10 µM is 33% and the inhibition at 100 µM was found to be 50%. For the same molecule, the inhibition at 100 µM in test [2] stood at 28%. Besides, the “Inhibition rate” value in test [3] came out at 26%. For the same molecule, the responders at 100 mg/kg in test [4] was 20%.

Consider `CCOc1cc(C=C2C(=O)NN(c3ccccc3)C2=O)cc(CSc2ccccc2)c1O` [XXXI], for which, in test [1], the inhibition at 10 µM amounted to 92% and the inhibition at 100 µM was found to be 100%. For the same molecule, the inhibition at 100 µM in test [2] was 59%. In addition, the “Inhibition rate” value in test [3] was found to be 30%. In addition, the responders at 100 mg/kg in test [4] was 20%.

Turning to `CCOC(=O)C(=Cc1cc(CSc2ccccc2)c(O)c(OCC)c1)S(C)(=O)=O` [XXII], the inhibition at 10 µM in test [1] is 64%. Besides, the inhibition at 100 µM in test [1] came to 80%; in test [2] it was 27%. For the same molecule, the “Inhibition rate” value in test [3] is 26%. For the same molecule, the responders at 100 mg/kg in test [4] is 20%.

In the case of `CCOc1cc(C=C(C#N)C(N)=O)cc(CSc2ccccc2)c1O` [I], in test [1], the inhibition at 10 µM was 100% and the inhibition at 100 µM turned out to be 100%. For the same molecule, the inhibition at 100 µM in test [2] was determined as 92%. In addition, in test [3], the “Inhibition rate” value stood at 21%. Besides, in test [4], the responders at 100 mg/kg is 40%.
